Test results: patent US11208400B2, “Substituted 6-(1H-pyrazol-1-yl)pyrimidin-4-amine derivatives and uses thereof” (Bayer Aktiengesellschaft, priority 2016, dated 2021)

These molecules were tested against T1, human Npt2a (Homo sapiens, UniProt Q06495) (assay: Npt2a activity cell based assay, membrane potential dye, CHO T-REx hNpt2a cells). Conditions: doxycycline-induced, depolarization by sodium phosphate influx, average or median values if tested more than once.
T1 construct: expressed in transfected cells
T1 sequence (Q06495 1-639): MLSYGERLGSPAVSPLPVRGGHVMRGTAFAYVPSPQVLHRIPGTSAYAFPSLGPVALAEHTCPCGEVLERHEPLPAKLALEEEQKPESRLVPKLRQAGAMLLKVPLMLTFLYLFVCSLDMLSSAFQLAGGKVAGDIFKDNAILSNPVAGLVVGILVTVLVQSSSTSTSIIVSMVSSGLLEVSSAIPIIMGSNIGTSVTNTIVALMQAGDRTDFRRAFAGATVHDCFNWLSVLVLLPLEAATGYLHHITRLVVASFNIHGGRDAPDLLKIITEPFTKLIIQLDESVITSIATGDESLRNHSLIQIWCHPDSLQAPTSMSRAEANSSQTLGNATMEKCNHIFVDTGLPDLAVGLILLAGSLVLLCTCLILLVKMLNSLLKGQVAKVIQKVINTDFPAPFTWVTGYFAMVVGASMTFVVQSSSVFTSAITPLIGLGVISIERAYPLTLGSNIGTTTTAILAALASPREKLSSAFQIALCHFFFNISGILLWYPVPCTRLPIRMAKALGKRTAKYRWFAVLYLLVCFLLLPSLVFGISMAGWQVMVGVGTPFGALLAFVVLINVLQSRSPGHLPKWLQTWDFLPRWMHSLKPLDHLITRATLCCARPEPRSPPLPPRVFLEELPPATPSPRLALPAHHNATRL
How it was run: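 Doxycycline-induced (0.5 μg/mL, 24 h) CHO T-REx cells were loaded with membrane potential dye in sodium-free NHE buffer (pH 7.4) and exposed to compound (50 μM–1 nM, 5 min, room temperature).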
`Cc1nn(-c2cc(Nc3c(C)c(-c4ccc(C(F)(F)F)cc4)nn3CC3CC3)ncn2)c(C(C)(C)O)c1Cl` [Example 294, 2-{4-chloro-1-[6-({1-(cyclopropylmethyl)-4-methyl-3-[4-(trifluoromethyl)phenyl]-1H-pyrazol-5-yl}amino)pyrimidin-4-yl]-3-methyl-1H-pyrazol-5-yl}propan-2-ol] showed an IC50 of 1400 nM.
Work on `Cc1nn(-c2cc(Nc3c(Cl)c(-c4ccc(F)cc4F)nn3C)ncn2)c2ccccc12` [Example 49, N-[4-chloro-3-(2,4-difluorophenyl)-1-methyl-1H-pyrazol-5-yl]-6-(3-methyl-1H-indazol-1-yl)pyrimidin-4-amine] yielded an IC50 of 310 nM.
`COc1c(-c2ccc(C#N)cc2)nn(CC2CC2)c1Nc1cc(-n2nc(C)c(C(C)OC)c2C)ncn1` (single isomer, unassigned) [Example 335] gave an IC50 of 51 nM.
Work on `CCc1c(Nc2cc(-n3nc(C)cc3C)ncn2)n[nH]c1-c1ccc(F)cc1F` [Example 9, N-[5-(2,4-difluorophenyl)-4-ethyl-1H-pyrazol-3-yl]-6-(3,5-dimethyl-1H-pyrazol-1-yl)pyrimidin-4-amine] yielded an IC50 of 40 nM.
Molecule `CCc1c(Nc2cc(-n3nc(C)c(Cl)c3C(F)F)ncn2)nn(CC(F)F)c1-c1ccc(F)cc1` [Example 172, 6-[4-chloro-5-(difluoromethyl)-3-methyl-1H-pyrazol-1-yl]-N-[1-(2,2-difluoroethyl)-4-ethyl-5-(4-fluorophenyl)-1H-pyrazol-3-yl]pyrimidin-4-amine] has an IC50 of 57 nM.
In the case of `Cc1nn(-c2cc(Nc3c(C)c(-c4ccc(C#N)cc4)nn3CC3CC3)ncn2)c(C)c1C#N` [Example 352, 1-(6-{[3-(4-cyanophenyl)-1-(cyclopropylmethyl)-4-methyl-1H-pyrazol-5-yl]amino}pyrimidin-4-yl)-3,5-dimethyl-1H-pyrazole-4-carbonitrile], the IC50 is reported as 25 nM.
For `CCOC(=O)c1c(C)nn(-c2cc(Nc3c(CC)c(-c4ccc(F)cc4)nn3C)ncn2)c1C` [Example 155, ethyl 1-(6-{[4-ethyl-3-(4-fluorophenyl)-1-methyl-1H-pyrazol-5-yl]amino}pyrimidin-4-yl)-3,5-dimethyl-1H-pyrazole-4-carboxylate], the IC50 was 9 nM.
Work on `Cc1nn(-c2cc(Nc3nn(C)c(-c4ccc(C#N)cc4)c3C)ncn2)c(C)c1C(C)(C)O` [Example 300, 4-[3-({6-[4-(2-hydroxypropan-2-yl)-3,5-dimethyl-1H-pyrazol-1-yl]pyrimidin-4-yl}amino)-1,4-dimethyl-1H-pyrazol-5-yl]benzonitrile] yielded an IC50 of 88 nM.
Work on `Cc1nn(-c2cc(Nc3c(C)c(-c4ccc(F)cc4)nn3CC3CC3)ncn2)c(C)c1C1(O)CC1` [Example 244, 1-[1-(6-{[1-(cyclopropylmethyl)-3-(4-fluorophenyl)-4-methyl-1H-pyrazol-5-yl]amino}pyrimidin-4-yl)-3,5-dimethyl-1H-pyrazol-4-yl]cyclopropanol] yielded an IC50 of 8 nM.
Work on `COc1c(C)nn(-c2cc(Nc3c(C)c(-c4ccc(C(F)F)nc4)nn3CC3CC3)ncn2)c1C` [Example 510, N-{1-(cyclopropylmethyl)-3-[6-(difluoromethyl)pyridin-3-yl]-4-methyl-1H-pyrazol-5-yl}-6-(4-methoxy-3,5-dimethyl-1H-pyrazol-1-yl)pyrimidin-4-amine] yielded an IC50 of 190 nM.
With `CCc1c(Nc2cc(-n3nc(C)c(CC(=O)OC(C)C)c3C)ncn2)nn(C)c1-c1ccc(F)cc1` [Example 440, propan-2-yl [1-(6-{[4-ethyl-5-(4-fluorophenyl)-1-methyl-1H-pyrazol-3-yl]amino}pyrimidin-4-yl)-3,5-dimethyl-1H-pyrazol-4-yl]acetate] the IC50 was 97 nM.
For `Cc1c(-c2ccc(C#N)cc2)nn(CC2CC2)c1Nc1cc(-n2cccn2)ncn1` [Example 246, 4-[1-(cyclopropylmethyl)-4-methyl-5-{[6-(1H-pyrazol-1-yl)pyrimidin-4-yl]amino}-1H-pyrazol-3-yl]benzonitrile], the IC50 was 340 nM.
